According to patent publication US7834152B2, “Antagonists of interleukin-15” (Beth Israel Deaconess Medical Center, Inc., priority 1996, dated 2010):
“Also recorded” adds a separate entry of the source. Where two headings read alike, the source gives them in different places.

Key:
PHA-activated PBMCs = test: Proliferative response to IL-2 or IL-15 of PBMCs pre-treated with immunosuppressive drugs and PHA; conditions: cells pre-treated with PHA and drug, washed, cultured with IL-2 2 days
[1] = system: BAF-BO3 cells transfected with pRcCMV-IL-2Rβ; test: [3H]-TdR proliferation assay, BAF-BO3 cells expressing human IL-2Rβ; assay type: cell-based, murine; conditions: for cell proliferation ([3H]-TdR incorporation): cells expressing wild-type human IL-2Rβ subunit
Method: (§1) The BAF-BO3 cell line is an IL-3-dependent, murine pro-B cell line. A BAF-BO3 cell line that was pre-selected for high expression of the IL-2Rα subunit was kindly provided by T. Taniguchi (Osaka, Japan; Hatakeyama et al., Cell 59:837, 1989). BAF-BO3 cells were transfected with vector control (pRcCMV-0) or cDNA encoding the human IL-2Rβ subunit cloned into pRcCMV (pRcCMV-IL-2Rβ), by electroporation at 350 volts and 500 μFarads using 20 μg of ScaI linearized plasmid. Transfected cells were selected in the presence of 1 mg/ml G418 and tested for the expression of the IL-2Rβ subunit by fluorescence activated cell sorting (FACS) analysis as described (Maslinski et al., Int. Immunol. 4:509, 1992; Hataleyama et al., Cell 59:837, 1989).
IL-3 dependent BAF-BO3 cells, which constitutively express the IL-2Rγ subunit, were transfected with a control pRcCMV construct (pRcCMV-0) or a pRcCMV construct containing cDNA encoding the full-length human IL-2Rβ_subunit and the neo^r gene (pRcCMV-IL-2Rβ). G418 resistant clones were then selected. Cells that were selected in this way were used to test the biological activity of FLAG-HMK-IL-15. […] Cells were washed twice to remove the medium containing the growth factor IL-3, and starved for 16 hours in RPMI-1640 medium supplemented with 10% FCS, penicillin (0.5 U/ml), and streptomycin (0.5 μg/ml). Cells were then plated at 2×10^4 cells/well, stimulated with FLAG-HMK-IL-15, and cultured for 72 hours at 37° C. in an atmosphere containing 5% CO2. This was followed by a 14 hour “pulse” with 1 μCi of [^3H]-TdR. The BAF-BO3 cells were then harvested and cell-associated radioactivity was measured by scintillation counting as described above.
In order to study the effect of various IL-15 related proteins, including the mutant polypeptides described above, on the proliferation of BAF-BO3 cells, the following experiment was performed in vitro. BAF-BO3 cells were transfected in culture with DNA from either pRcCMV-IL-2Rβ or pRcCMV-0.

[2] = system: leukemia cells (MOLT-14, YT, HuT-102, 2A, 2B); test: Flow cytometry staining of leukemic cell lines with FLAG-HMK-IL-15; assay type: binding
Method: The cells treated were from the leukemic cell lines MOLT-14, YT, HuT-102, and from cell lines currently being established at Beth Israel Hospital (Boston, Mass.), and designated 2A and 2B. The cultured cells were washed and incubated with either medium alone (tracing alone) or with medium containing the FLAG-HMK-IL-15 polypeptide (tracing filled in). The cells were then incubated with the biotinylated anti-FLAG antibody and stained with RED670-conjugated streptavidin. The stained cells were analyzed by flow cytometry.
The cells treated were obtained from the leukemic cell lines MOLT-14, YT, HuT-102, and from cell lines currently being established at Beth Israel Hospital (Boston, Mass.), and named 2A and 2B. The cultured cells were washed and incubated with either medium alone or with medium containing the FLAG-HMK-IL-15 wild-type polypeptide (FIG. 18). The cells were then incubated with the biotinylated anti-FLAG antibody and stained with RED670-conjugated streptavidin. The stained cells were analyzed by flow cytometry.

IL-15Rα subunit = target: T1, IL-15Rα subunit (Homo sapiens, UniProt Q13261); test: Cross-linking of [32P]-FLAG-HMK-IL-15 to PHA-activated PBMCs (DSS, SDS-PAGE, autoradiography); assay type: binding
T1 construct: endogenous in cells
T1 sequence (Q13261 31-267): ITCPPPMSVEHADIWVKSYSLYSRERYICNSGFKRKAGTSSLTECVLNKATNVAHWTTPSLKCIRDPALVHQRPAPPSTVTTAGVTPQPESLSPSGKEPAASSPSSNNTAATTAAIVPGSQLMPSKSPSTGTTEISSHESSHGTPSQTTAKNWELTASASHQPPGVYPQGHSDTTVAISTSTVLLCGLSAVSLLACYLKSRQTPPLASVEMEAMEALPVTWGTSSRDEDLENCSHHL
Method: After 72 hours in culture, PHA-activated PBMCs were washed twice in cold phosphate-buffered saline (PBS), and 10^7 cells/ml were incubated for 30 minutes at 4° C. in 400 μl of RMPI-1640 medium supplemented with 25 mM HEPES (pH 7.4), 10% FCS, penicillin (0.5 U/ml), and streptomycin (0.5 μg/ml). Supplemented RPMI-1640 medium (20 μl) containing 1 μg of recombinant human IL-15 as a control for non-specific binding or medium alone was then added, and the incubation was continued for 15 minutes before 20 μl of medium containing [^32P]-labeled FLAG-HMK-IL-15 (1 ng, 500,000 cpm) was added to each sample. After further incubation for 1 hour at 4° C., the cells were washed with PBS and resuspended in 250 μl of PBS. Disuccinimidyl suberate (DDS; 1 mM), a cross-linker, was added, and cross-linking was performed as described by Tsudo et al. (Proc. Natl. Acad. Sci. USA 83:9694, 1986). The cross-linked cells were collected by centrifugation, washed, solubilized with extraction buffer (2% Nonidet P-40, 0.14 M NaCl, 25 mM HEPES (pH 7.4), 1 mM phenyl-methylsulfonyl fluoride) and centrifuged. Proteins present in the supernatants of these cell lysates were separated by 8% SDS-PAGE under reducing conditions. An autoradiogram was developed from the dry gel after exposure at −70° C. overnight. […]

[3] = system: PHA-activated human PBMCs; test: [3H]-TdR proliferation assay, PHA-activated human PBMCs; assay type: cell-based; conditions: PHA-activated PBMCs re-stimulated with reagent
Method: Peripheral blood mononuclear cells (1×10^6/ml) were stimulated with PHA (2 μg/ml) for 72 hours at 37° C. in RPMI-1640 medium supplemented with 10% FCS, penicillin, and streptomycin, as described above.
In the next series of experiments, the FLAG-HMK-IL-15 fusion protein was tested in order to determine whether it could function as a biologically active growth factor.

[4] = system: BAF-BO3 cells transfected with pRcCMV-0; test: [3H]-TdR proliferation assay, BAF-BO3 vector control cells; assay type: cell-based, murine; conditions: vector lacking IL-2Rβ chain sequences
Method: as §1
IL-3 dependent BAF-BO3 cells, which constitutively express the IL-2Rγ subunit, were transfected with a control pRcCMV construct (pRcCMV-0) or a pRcCMV construct containing cDNA encoding the full-length human IL-2Rβ_subunit and the neo^r gene (pRcCMV-IL-2Rβ). G418 resistant clones were then selected. Cells that were selected in this way were used to test the biological activity of FLAG-HMK-IL-15. […] The BAF-BO3 cells were then harvested and cell-associated radioactivity was measured by scintillation counting as described above. […]

[5] = system: IL-2Rαγ+ BAF-BO3 cells that express mutant S− IL-2Rβ subunit; test: Proliferation assay, BAF-BO3 cells expressing mutant S− IL-2Rβ subunit; assay type: cell-based, murine; conditions: IL-2Rβ lacking serine-rich region (S−), 38 hours
Excerpt: Error bars indicate the mean±standard deviation.
Therefore, the ability of IL-15 to induce the proliferation of IL-2Rαγ^+BAF-BO3 cells that express either the wild-type IL-2Rβ subunit or a mutant IL-2Rβ protein that lacks the serine rich region (S^−).

[6] = system: IL-15 binding sites on PHA-activated human PBMCs; test: Flow cytometry staining of PHA-activated PBMCs (anti-FLAG biotinylated Ab, streptavidin-RED670)
Method: Resting or PHA-activated PBMCs (3×10^5 cells/tube) were washed twice with ice-cold PBS/0.02% sodium azide and incubated in medium containing FLAG-HMK-IL-15 (0.1 μg/100 μl) or, as a control, in medium alone. The incubation was carried out on ice for 30 minutes. The cells were then washed with PBS and incubated for two sequential 30 minute periods at 4° C. with biotin-conjugated anti-FLAG monoclonal antibody (0.5 μg/100 μl) and streptavidin-RED670 (0.5 μg/100 μl). The cells were then counterstained with CD25-PE, CD14-PE, CD16-PE, CD122-PE, CD4-FITC, or CD8-FITC, as indicated. […] Cell surface phenotype was analyzed using FACScan (Becton/Dickinson, Calif.) and Cell Quest software.
The FLAG-HMK-IL-15 fusion protein, biotinylated anti-FLAG antibody, and streptavidin-RED670 were employed to detect expression of IL-15 binding sites on human PBMCs by cytofluorometric analysis. […] The stained cells were analyzed by flow cytometry (FIG. 4A). […] Both activated CD4^+ and CD8^+ cells express IL-15α chains (FIG. 4C); Activation induced IL-15α chains were also detected on CD14^+ (monocyte/macrophage) cells and CD16^+ (natural killer) cells.
PHA-activated PBMCs were washed and incubated with medium alone, or with the FLAG-HMK-IL-15 double mutant. […] The stained cells were analyzed by flow cytometry (FIG. 17).

Molecule: C[C@@H]1C[C@H]2[C@@H]3CCC4=CC(=O)C=C[C@]4(C)[C@@]3(F)[C@@H](O)C[C@]2(C)[C@@]1(O)C(=O)CO [dexamethasone]
- proliferative response to IL-2 (PHA-activated PBMCs): not inhibited

Molecule: O=c1c(-c2ccc(O)cc2)coc2cc(O)cc(O)c12 [genistein]
- cell viability (human PBMCs; genistein 10 μg/ml, 3 days of incubation): 659±15 % of the control

Molecule: CO[C@H]1C[C@@H]2CC[C@@H](C)[C@@](O)(O2)C(=O)C(=O)N2CCCC[C@H]2C(=O)O[C@H]([C@H](C)C[C@@H]2CC[C@@H](O)[C@H](OC)C2)CC(=O)[C@H](C)/C=C(\C)[C@@H](O)[C@@H](OC)C(=O)[C@H](C)C[C@H](C)/C=C/C=C/C=C/1C [rapamycin]
- cell viability (human PBMCs; human, 3 days, 10 ng/ml): 8.5%±10%

Molecule: FLAG-HMK-IL-15 Q149D single mutant: IL-15 single mutant, glutamine at position 149 changed to aspartate, FLAG-HMK tagged
- cell proliferation ([3H]-TdR incorporation) [1]: stimulated cellular proliferation

Molecule: FLAG-HMK-IL-15: IL-15 polypeptide having an N-terminus covalently bound to the 18 amino acid FLAG-HMK-sequence
- cell proliferation ([3H]-TdR incorporation) [1]: stimulates proliferation; also recorded: stimulated cellular proliferation
- binding to leukemia cells [2]: bind leukemia cells
- binding to the IL-15Rα subunit on mitogen-activated PBMCs (IL-15Rα subunit; [32P]-labeled protein, DSS cross-linking, 4° C.): site specific binding
- cell proliferation ([3H]-TdR incorporation) [3]: proliferate in response to
- cell proliferation ([3H]-TdR incorporation) [4]: does not, however, stimulate the proliferation

Molecule: IL-15: recombinant human IL-15 obtained from PeproTech
- cell proliferation ([3H]-TdR incorporation) [1]: stimulate the proliferation; also recorded: stimulated cellular proliferation
- cell proliferation [5]: neither cytokine is able to stimulate
- blocking of FLAG-HMK-IL-15 binding to PHA activated PBMCs ([6]; molar excess of competitor): blocked
- competition of [32P]-FLAG-HMK-IL-15 cross-linked band (IL-15Rα subunit; molar excess of competitor): failed to detect

Molecule: double mutant IL-15: human IL-15 protein bearing a double mutation (Q149D; Q156D), FLAG-HMK tagged
- inhibition of BAF-BO3 proliferation ([1]; IL-15 + double mutant, 30 μl (approximately 50 μg/ml) versus 20 μL of the same concentration): inhibited proliferation more completely
- cell proliferation ([3H]-TdR incorporation) [1]: did not proliferate
- binding to PHA-activated human PBMCs ([6]; flow cytometry): bind PHA-activated human PBMCs
